Measurements published in patent publication US7521469B2, “Phosphinic amino acid compounds” (Les Laboratoires Servier, priority 2005, dated 2009).

Key:
[1] = target: ACE (recombinant human form) (Homo sapiens, UniProt P12821); test: In vitro inhibitory effect on angiotensin converting enzyme (ACE), quenched-fluorescence substrate; format: biochemical; conditions: inhibitor incubated with enzyme 45 minutes; substrate Mca-Arg-Pro-Pro-Gly-Phe-Ser-Pro-DpaCOOH 5 μM
Experimental: (§1) In vitro inhibitory effect on angiotensin converting enzyme (ACE) and endothelin converting enzyme (ECE)
(§2) In order to compare their specificity, the compounds of the Examples were tested on 2 enzymes: ACE (recombinant human form) and ECE (recombinant human form of the isoform ECE-1c).
(§3) The tests were carried out in duplicate in 96-well plates. The inhibitor was incubated together with the enzyme for 45 minutes before the addition of a quenched-fluorescence substrate. The fluorescence emitted was detected and measured in a Fluoroscan Ascent plate reader (Thermo-Labsystems).
(§4) The fluorogenic substrates used are: Mca-Arg-Pro-Pro-Gly-Phe-Ser-Pro-DpaCOOH (5 μM) with ACE, and Mca-Arg-Pro-Pro-Gly-Phe-Ser-Ala-Phc-Lys(Dnp)COOH (5 μM; R&D Systems) with ECE.

[2] = target: T1, ECE (recombinant human form of the isoform ECE-1c) (Homo sapiens, UniProt P42892); test: In vitro inhibitory effect on endothelin converting enzyme (ECE), quenched-fluorescence substrate; format: biochemical; conditions: inhibitor incubated with enzyme 45 minutes; substrate Mca-Arg-Pro-Pro-Gly-Phe-Ser-Ala-Phc-Lys(Dnp)COOH 5 μM
T1 sequence (P42892 1-754 isoform P42892-3): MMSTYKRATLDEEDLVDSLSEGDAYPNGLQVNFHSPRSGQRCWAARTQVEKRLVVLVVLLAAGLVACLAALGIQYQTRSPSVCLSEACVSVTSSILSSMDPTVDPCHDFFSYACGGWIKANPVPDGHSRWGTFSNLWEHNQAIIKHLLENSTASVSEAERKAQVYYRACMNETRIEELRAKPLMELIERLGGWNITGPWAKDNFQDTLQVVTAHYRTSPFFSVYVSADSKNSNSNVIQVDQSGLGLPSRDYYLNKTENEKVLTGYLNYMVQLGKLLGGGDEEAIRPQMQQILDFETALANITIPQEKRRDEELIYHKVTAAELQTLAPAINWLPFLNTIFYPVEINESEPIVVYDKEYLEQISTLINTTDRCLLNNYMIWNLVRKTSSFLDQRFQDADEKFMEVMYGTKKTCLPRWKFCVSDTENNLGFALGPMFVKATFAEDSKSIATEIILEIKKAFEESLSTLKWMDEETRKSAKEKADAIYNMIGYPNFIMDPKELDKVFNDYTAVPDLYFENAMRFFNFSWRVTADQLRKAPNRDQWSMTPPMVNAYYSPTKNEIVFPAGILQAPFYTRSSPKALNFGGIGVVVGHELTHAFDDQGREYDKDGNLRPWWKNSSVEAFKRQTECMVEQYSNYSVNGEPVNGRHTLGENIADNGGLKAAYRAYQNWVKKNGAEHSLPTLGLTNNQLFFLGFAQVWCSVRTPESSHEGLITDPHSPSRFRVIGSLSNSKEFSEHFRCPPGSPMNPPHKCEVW
Experimental: as §1, §2, §3, §4

Sequence of ACE (recombinant human form) (P12821 30-1306): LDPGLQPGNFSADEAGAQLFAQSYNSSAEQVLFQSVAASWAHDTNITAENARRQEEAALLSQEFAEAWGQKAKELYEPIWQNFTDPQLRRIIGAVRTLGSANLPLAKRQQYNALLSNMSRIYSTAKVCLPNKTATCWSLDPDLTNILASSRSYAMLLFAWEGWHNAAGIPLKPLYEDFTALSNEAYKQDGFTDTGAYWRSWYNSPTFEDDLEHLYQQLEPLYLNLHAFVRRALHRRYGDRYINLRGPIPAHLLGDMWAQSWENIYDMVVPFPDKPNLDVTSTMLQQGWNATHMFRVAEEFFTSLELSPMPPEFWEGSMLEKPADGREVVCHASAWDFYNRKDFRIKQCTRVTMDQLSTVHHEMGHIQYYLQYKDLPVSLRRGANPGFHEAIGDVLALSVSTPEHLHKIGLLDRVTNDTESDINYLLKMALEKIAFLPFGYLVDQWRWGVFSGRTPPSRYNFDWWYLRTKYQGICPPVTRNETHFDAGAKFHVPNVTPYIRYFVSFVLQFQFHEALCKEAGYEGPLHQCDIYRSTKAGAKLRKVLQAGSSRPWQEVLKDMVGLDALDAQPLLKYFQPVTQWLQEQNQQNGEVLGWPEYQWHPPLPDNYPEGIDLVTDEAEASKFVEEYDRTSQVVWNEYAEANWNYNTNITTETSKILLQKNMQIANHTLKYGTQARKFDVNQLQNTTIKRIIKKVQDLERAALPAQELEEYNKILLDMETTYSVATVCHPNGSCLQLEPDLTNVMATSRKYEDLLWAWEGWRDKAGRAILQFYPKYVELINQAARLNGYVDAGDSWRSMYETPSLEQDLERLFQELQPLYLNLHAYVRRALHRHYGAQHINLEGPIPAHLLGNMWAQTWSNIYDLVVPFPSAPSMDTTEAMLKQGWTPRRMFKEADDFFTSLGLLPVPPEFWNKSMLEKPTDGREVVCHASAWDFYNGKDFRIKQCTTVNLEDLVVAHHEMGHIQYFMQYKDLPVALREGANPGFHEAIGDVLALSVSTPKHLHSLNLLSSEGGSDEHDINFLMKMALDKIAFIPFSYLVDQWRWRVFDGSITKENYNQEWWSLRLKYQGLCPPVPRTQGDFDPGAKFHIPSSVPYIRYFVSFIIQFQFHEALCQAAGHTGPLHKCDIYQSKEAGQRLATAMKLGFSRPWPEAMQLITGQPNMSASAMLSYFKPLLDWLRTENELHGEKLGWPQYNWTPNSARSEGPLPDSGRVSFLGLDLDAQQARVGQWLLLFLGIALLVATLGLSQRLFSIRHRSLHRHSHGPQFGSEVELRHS

SMILES	IC50 [1]	IC50 [2]
O=C(N[C@@H](Cc1ccccc1)P(=O)(O)C[C@H](Cc1cc(-c2ccccc2)no1)C(=O)N[C@@H](Cc1ccc(O)cc1)C(=O)O)OCc1ccccc1 [Example 3, (5R,8R,11S)-5-Benzyl-6-hydroxy-11-(4-hydroxybenzyl)-3,9-dioxo-1-phenyl-8-[(3-phenyl-5-isoxazolyl)methyl]-2-oxa-4,10-diaza-6-phosphadodecan-12-oic acid 6-oxide]	1.4 nM	1.4 nM
O=C(N[C@@H](Cc1ccccc1)P(=O)(O)C[C@H](Cc1cc(-c2ccccc2)no1)C(=O)N[C@@H](Cc1ccccc1)C(=O)O)OCc1ccccc1 [Example 2, (5R,8R,11S)-5,11-Dibenzyl-6-hydroxy-3,9-dioxo-1-phenyl-8-[(3-phenyl-5-isoxazolyl)methyl]-2-oxa-4,10-diaza-6-phosphadodecan-12-oic acid 6-oxide]	3.8 nM	7.7 nM
O=C(N[C@@H](Cc1ccccc1)P(=O)(O)C[C@H](Cc1cc(-c2ccccc2)no1)C(=O)N[C@@H](Cc1c[nH]c2ccccc12)C(=O)O)OCc1ccccc1 [Example 1, (5R,8R,11S)-5-Benzyl-6-hydroxy-11-(1H-indol-3-ylmethyl)-3,9-dioxo-1-phenyl-8-[(3-phenyl-5-isoxazolyl)methyl]-2-oxa-4,10-diaza-6-phosphadodecan-12-oic acid 6-oxide]	36 nM	8 nM
